Measurements taken from patent US10710996B2, “Pyrido-azaheterecydic compound and preparation method and use thereof” (SHANGHAI INSTITUTE OF MATERIA MEDICA, CHINESE ACADEMY OF …, priority 2015, dated 2020).
Read-outs that look alike come from different tables or passages of the source.

Columns and labels:
[1] = test system: EBC-1 cells; assay: Inhibition of c-Met-mediated EBC-1 cell proliferation (SRB staining); type: cell-based; details: Homo sapiens, 72 hours treatment
Description: The inhibitory effect of the compounds on the growth of non-small cell cancer EBC-1 cell (a cell line in which Met is continually activated due to the amplification of MET gene, and is a Met-dependent tumor cell line) was measured by sulforhodamine B (SRB) staining assay. A certain amount of EBC-1 cells in their logarithmic growth phase were seeded in 96-well plates at 90 μL per well and cultured overnight, then 10 μL of different concentrations of compounds or solvent control were added thereto, three wells for each concentration. After treated by the compound for 72 hours, the adherent cells were removed of culture medium and fixed with 10% (w/v) trichloroacetic acid (100 μL/well) at 4° C. for 1 hr followed by rinsing with distilled water five times. After drying at room temperature, 100 μL of SRB solution (dissolved in 1% glacial acetic acid at 4 mg/mL) was added to each well to incubate and stain the cells for 15 min at room temperature, then unbound SRB was washed off with 1% glacial acetic acid for five times. After drying at room temperature, 100 μL of 10 mM Tris solution was added to each well. The optical density (OD value) at 515 nm was read on a VERSMax microplate reader. […] The experiment was repeated twice. The IC50 data was calculated as a range based on the test results of concentrations set in the initial screening test.

[2] = biological target: T1, c-Met kinase (Homo sapiens, UniProt P08581); assay: Inhibitory effect on c-Met kinase activity at molecular level (ELISA); type: biochemical;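 note: recombinant c-Met kinase domain with 5 µM ATP, 1 h at 37 °C, substrate phosphorylation detected by anti-phosphotyrosine PY99 ELISA at 490 nm versus DMSO negative control, ATP-free wells as blank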
T1 construct: c-Met kinase domain recombinant protein diluted with 49 μL of the reaction buffer was added
Description: Experiment for Preliminarily Evaluating the Inhibitory Effect on the Activity of Receptor Tyrosine Kinase c-Met at Molecular Level
After discarding the liquid in the wells, the plate was washed with T-PBS (0.1% Tween-20 in PBS) in an amount of 200 μL/well three times, each for 5 minutes. The ELISA plate was dried in an oven at 37° C. for 1-2 hours. 50 μl of adenosine triphosphate (ATP) solution diluted with reaction buffer (50 mM 4-hydroxyethylpiperazine ethanesulfonic acid (HEPES) pH 7.4, 50 mM MgCl2, 0.5 mM MnCl2, 0.2 mM Na3VO4, 1 mM dithiothreitol (DTT)) to a final concentration of 5 μM was added to each well. The compounds were diluted to an appropriate concentration with DMSO (1 μL/well) or a solution containing DMSO in a corresponding concentration (negative control well), and then c-Met kinase domain recombinant protein diluted with 49 μL of the reaction buffer was added therein to initiate the reaction, with two ATP-free control wells for each test. The plate was placed in a shaker (100 rpm) at 37° C. for reacting 1 hour, and washed with T-PBS three times. Primary antibody PY99 diluent was added in an amount of 100 μL/well to allow the reaction in a shaker at 37° C. for 0.5 hour, and then the plate was washed with T-PBS three times. Then the secondary antibody horseradish peroxidase labeled goat anti-mouse IgG diluent was added in an amount of 100 μL/well, and the plate was placed in a shaker at 37° C. for reacting 0.5 hour, and then washed with T-PBS three times. 2 mg/ml of o-phenylenediamine (OPD) coloring solution (diluted with 0.1 M citric acid-sodium citrate buffer (pH=5.4) containing 0.03% H2O2) was then added at 100 μL/well and reacted at 25° C. for 1-10 min with light blocked (ultrasound was required to dissolve OPD, the coloring solution was prepared when needed). The reaction was stopped by adding 2 M of H2SO4 in an amount of 50 μL/well, and a wavelength-adjustable microplate reader SPECTRA MAX 190 was read at 490 nm.
The inhibition rate of the sample was calculated by the following equation:

[3] = Pharmacokinetic test in rats; type: in vivo, Sprague-Dawley rats; details: male, Sprague-Dawley, plasma, rat; for MRT: read-out: MRT
Description: 14 male Sprague-Dawley rats, weigh 200-220 g, were randomly divided into 4 groups with 4/3 in each group. The rats were intragastrically and intravenously administered with compound 7S and 8S respectively. The compounds were dissolved in normal saline containing 5% of DMSO and solubilized with 5% of tween-80 (Tween 80), and the final concentration of the sample was 1 mg/ml.
The rats were fasted 12 h before the test, free drinking water. They were fed 2 h after administration.
gavage administration: 0.25 h, 0.5 h, 1.0 h, 2.0 h, 3.0 h, 4.0 h, 6.0 h, 8.0 h and 24 h after administration;
intravenous administration: 5 min, 0.25 h, 0.5 h, 1.0 h, 2.0 h, 4.0 h, 6.0 h, 8.0 h and 24 h after administration;
0.3 ml venous blood was collected from the retrobulbar venous plexus of rats at the above time point, and placed in a heparinized tube and centrifuged at 11000 rpm for 5 min. The plasma was separated and frozen in a refrigerator at −20° C.
The concentrations of the compounds in rat plasma were measured by LC/MS/MS.
Pharmacokinetic parameters after administration were calculated using the non-compartmental model of the Phoenix 1.3 software (Pharsight, U.S.A.).
Peak concentration Cmax and peak time Tmax were the measured values;
The area under the curve of the drug concentration vs. time AUC0-t value: calculated according to trapezoidal rule; AUC0-∞=AUC0-t+Ct/ke, Ct is the plasma concentration at the last measurable time point, ke is the elimination rate constant;
Elimination half-life t1/2=0.693/ke;
Average retention time MRT=AUMC/AUC.
Clearance rate CL=D/AUC0-∞;
Volume of distribution at steady state Vss=CL×MRT

[4] = test system: human lung cancer EBC-1 xenograft tumor; assay: Growth inhibition of subcutaneous xenograft tumor of human lung cancer EBC-1 in nude mice; type: in vivo; details: 50 mg/kg qd/21 po
Description: EBC-1 cells were subcutaneously inoculated into the armpit on the right side of the nude mice in an amount of 5×10^6/mouse respectively to form xenograft tumor, which were then passaged in nude mice for three generations. Tumor tissue that was growing vigorously was cut into about 1.5 mm^3 under sterile conditions, and subcutaneously inoculated into the armpit on the right side of the nude mice, and the diameter of the xenograft tumor was measured with a vernier caliper. The diameter of the subcutaneous xenograft tumor in nude mice was measured with a vernier caliper. […] The diameter of xenograft tumor was measured twice a week and the body weight of mice was weighed during the whole experiment. The tumor volume (TV) was calculated by the following equation: TV=½×a×b^2, wherein a and b represent the length and width, respectively. The relative tumor volume (RTV) was calculated based on the measured results, and the calculation equation thereof is: RTV=Vt/V0, wherein V0 is the tumor volume measured when the mice were divided in different cages and administered (i.e., d0) and Vt is the tumor volume measured each time.

[5] = po, intragastric (gavage) 10 mg/kg, mean

T1 sequence (P08581 1078-1345 limits assumed): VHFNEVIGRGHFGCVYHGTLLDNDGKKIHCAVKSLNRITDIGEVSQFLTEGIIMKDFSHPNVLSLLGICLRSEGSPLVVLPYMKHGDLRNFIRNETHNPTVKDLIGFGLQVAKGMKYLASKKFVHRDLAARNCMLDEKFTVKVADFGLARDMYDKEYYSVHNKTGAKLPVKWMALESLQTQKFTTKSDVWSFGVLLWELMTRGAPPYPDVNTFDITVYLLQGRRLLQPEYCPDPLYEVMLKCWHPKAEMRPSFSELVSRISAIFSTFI

Compound	IC50 [2]	IC50 [1]	also measured
O=C(Nc1ccc(F)cc1)C1(C(=O)Nc2ccc(Oc3ccnc4cc(OCCCN5CCOCC5)ncc34)c(F)c2)CC1 [Compound 8S]	1 to 10 nM	10 to 100 nM	bioavailability ([3]; oral, gavage 10 mg/kg vs intravenous 5 mg/kg, read-out: F (absolute bioavailability)): 38.6%; AUC(0-inf) [3, 5]: 6870 ng·h/mL; AUC(0-t) [3, 5]: 6780 ng·h/mL; Cmax [3, 5]: 2060 ng/mL; Tmax [3, 5]: 1.25 h; half-life [3, 5]: 1.49 h; AUC(0-inf) ([3]; intravenous 5 mg/kg, mean): 8810 ng·h/mL; AUC(0-t) ([3]; intravenous 5 mg/kg, mean): 8770 ng·h/mL; clearance ([3]; intravenous 5 mg/kg, mean): 9.58 mL/min/kg; half-life ([3]; intravenous 5 mg/kg, mean): 1.15 h; Vd ([3]; intravenous 5 mg/kg, mean, read-out: Vss): 0.667 L/kg; MRT ([3]; iv, 5 mg/kg, intravenous 5 mg/kg, mean): 1.17 h; MRT ([3]; po, 10 mg/kg, intragastric (gavage) 10 mg/kg, mean): 2.71 h
Cc1noc(C)c1-c1cc2nccc(Oc3ccc(NC(=O)C4(C(=O)Nc5ccc(F)cc5)CC4)cc3F)c2cn1 [Compound 45S, N-(4-((7-(3,5-dimethylisoxazol-4-yl)-1,6-naphthyridin-4-yl)oxy)-3-fluorophenyl)-N-(4-fluorophenyl) cyclopropyl-1,1-dicarboxamide]	100 to 1000 nM	1000 to 10000 nM	
O=C(Nc1ccc(F)cc1)C1(C(=O)Nc2ccc(Oc3ccnc4cc(-c5ccncc5)ncc34)c(F)c2)CC1 [Compound 46S, N-(3-fluoro-4-((7-(pyridin-4-yl)-1,6-naphthyridin-4-yl)oxy)phenyl)-N-(4-fluorophenyl)cyclopropyl-1,1-dicarboxamide]	1 to 10 nM	100 to 1000 nM	
O=C(Nc1ccc(F)cc1)C1(C(=O)Nc2ccc(Oc3ccnc4cc(-c5cncnc5)ncc34)c(F)c2)CC1 [Compound 47S, N-(3-fluoro-4-((7-(pyrimidin-5-yl)-1,6-naphthyridin-4-yl)oxy)phenyl)-N-(4-fluorophenyl)cyclopropyl-1,1-dicarboxamide]	1 to 10 nM	10 to 100 nM	
O=C(Nc1ccc(F)cc1)C1(C(=O)Nc2ccc(Oc3ccnc4cc(-c5ccc(F)c(F)c5)ncc34)c(F)c2)CC1 [Compound 49S, N-(3-fluoro-4-((7-(3,4-difluorophenyl)-1,6-naphthyridin-4-yl)oxy)phenyl)-N-(4-fluorophenyl)cyclopropyl-1,1-dicarboxamide]	1 to 10 nM	10 to 100 nM	
Cn1cc(-c2cc3nccc(Oc4ccc(NC(=O)c5c[nH]cc(-c6ccc(F)cc6)c5=O)cc4F)c3cn2)cn1 [Compound 54S, N-(3-fluoro-4-((7-(1-methyl-1H-pyrazol-4-yl)-1,6-naphthyridin-4-yl)oxy)phenyl)-5-(4-fluorophenyl)-4-oxo-1,4-dihydropyridine-3-carboxamide]	1 to 10 nM	10 to 100 nM	
O=C(Nc1ccc(F)cc1)C1(C(=O)Nc2ccc(Oc3ccnc4nc(Cl)cnc34)c(F)c2)CC1 [Compound 55S, N-(4-((3-chloropyrido[2,3-b]pyrazin-8-yl)oxy)-3-fluorophenyl)-N-(4-fluorophenyl)cyclopropyl-1,1-dicarboxamide]	10 to 100 nM	1000 to 10000 nM	
O=C(Nc1ccc(F)cc1)C1(C(=O)Nc2ccc(Oc3ccnc4nc(N5CCOCC5)cnc34)c(F)c2)CC1 [Compound 57S]	10 to 100 nM	1000 to 10000 nM	
O=C(Nc1ccc(F)cc1)C1(C(=O)Nc2ccc(Oc3ccnc4nc(NCCCN5CCOCC5)cnc34)c(F)c2)CC1 [Compound 62S, N-(3-fluoro-4-((3-((3-morpholinopropyl)amino)pyrido[2,3-b]pyrazin-8-yl)oxy)phenyl)-N-(4-fluorophenyl) cyclopropyl-1,1-dicarboxamide]	10 to 100 nM	1000 to 10000 nM	
O=C(Nc1ccc(F)cc1)C1(C(=O)Nc2ccc(Oc3ccnc4nc(N5CCNCC5)cnc34)c(F)c2)CC1 [Compound 64S, N-(4-((3-piperazinyl-pyrido[2,3-b]pyrazin-8-yl)oxy)-3-fluorophenyl)-N-(4-fluorophenyl)cyclopropyl-1,1-dicarboxamide]	1 to 10 nM	1000 to 10000 nM	
O=C(Nc1ccc(F)cc1)C1(C(=O)Nc2ccc(Oc3ccnc4ncc(N5CCNCC5)nc34)c(F)c2)CC1 [Compound 65S, N-(4-((2-piperazinyl-pyrido[2,3-b]pyrazin-8-yl)oxy)-3-fluorophenyl)-N-(4-fluorophenyl)cyclopropyl-1,1-dicarboxamide]	1000 to 10000 nM	1000 to 10000 nM	
O=C(Nc1ccc(F)cc1)C1(C(=O)Nc2ccc(Oc3ccnc4ncc(OCCN5CCOCC5)nc34)c(F)c2)CC1 [Compound 67S, N-(3-fluoro-4-((2-(2-morpholinoethoxy)pyrido[2,3-b]pyrazin-8-yl)oxy)phenyl)-N-(4-fluorophenyl)cyclopropyl-1,1-dicarboxamide]	1000 to 10000 nM	1000 to 10000 nM	
C[C@@H](Oc1cc(-c2cnn(C3CCNCC3)c2)cnc1N)c1c(Cl)ccc(F)c1Cl [PF2341066, Crizotinib, reference compound]			TV (mm^3, mean ± SD) d0 ([4]; d0): 123 ± 25 mm^3; Weight (g) d0 ([4]; d0): 17.2 g; RTV (mean ± SD) ([4]; d21): 0.00 ± 0.00; T/C (%) ([4]; d21): 0.00%; TV (mm^3, mean ± SD) d21 ([4]; d21): 0 ± 0 mm^3; Weight (g) d21 ([4]; d21): 19.6 g

Continued, in another order:

IC50 [2]	Compound	IC50 [1]	also measured
100 to 1000 nM	O=C(Nc1ccc(F)cc1)C1(C(=O)Nc2ccc(Oc3ccnc4ncc(Cl)nc34)c(F)c2)CC1 [Compound 56S]	1000 to 10000 nM	
100 to 1000 nM	O=C(Nc1ccc(F)cc1)C1(C(=O)Nc2ccc(Oc3ccnc4ncc(N5CCOCC5)nc34)c(F)c2)CC1 [Compound 58S]	1000 to 10000 nM	
1 to 10 nM	CN1CCN(c2cnc3c(Oc4ccc(NC(=O)C5(C(=O)Nc6ccc(F)cc6)CC5)cc4F)ccnc3n2)CC1 [Compound 59S, N-(3-fluoro-4-((3-(4-methylpiperazin-1-yl)pyrido[2,3-b]pyrazin-8-yl)oxy)phenyl)-N-(4-fluorophenyl)cyclopropyl-1,1-dicarboxamide]	100 to 1000 nM	
10 to 100 nM	O=C(Nc1ccc(F)cc1)C1(C(=O)Nc2ccc(Oc3ccnc4nc(OCCN5CCOCC5)cnc34)c(F)c2)CC1 [Compound 60S, N-(3-fluoro-4-((3-(2-morpholinoethoxy)pyrido[2,3-b]pyrazin-8-yl)oxy)phenyl)-N-(4-fluorophenyl)cyclopropyl-1,1-dicarboxamide]	1000 to 10000 nM	
1 to 10 nM	O=C(Nc1ccc(F)cc1)C1(C(=O)Nc2ccc(Oc3ccnc4ncc(NCCCN5CCOCC5)nc34)c(F)c2)CC1 [Compound 63S, N-(3-fluoro-4-((2-((3-morpholinopropyl)amino)pyrido[2,3-b]pyrazin-8-yl)oxy)phenyl)-N-(4-fluorophenyl) cyclopropyl-1,1-dicarboxamide]	1000 to 10000 nM	
1000 to 10000 nM	O=C(Nc1ccc(F)cc1)C1(C(=O)Nc2ccc(Oc3ccnc4ncc(OCCCN5CCOCC5)nc34)c(F)c2)CC1 [Compound 68S, N-(3-fluoro-4-((2-(3-morpholinopropoxy)pyrido[2,3-b]pyrazin-8-yl)oxy)phenyl)-N-(4-fluorophenyl)cyclopropyl-1,1-dicarboxamide]	1000 to 10000 nM	
